Consider 27 compounds from PubChem BioAssay AID1159564 (GlaxoSmithKline (GSK), 2015).

For the experiment, the system named is L. donovani-infected THP-1 macrophages, intracellular amastigote imaging. The experiment is described as follows: intracellular L. donovani amastigote inhibition, imaging, THP-1 host macrophages, host toxicity (AID 1159564).
Setting [1] is: measured here: THP-1 host cell toxicity.
The mark [2] stands for this setting: measured here: amastigotes per macrophage.

Calls of active or inactive are those of the source. No rule for the calls is given here. Where only a bound is given, the exact number is not on record here.

What is called IC50 is the concentration that gives 50% inhibition. `CC(=O)Nc1ccc(-c2cnc(N)c(-c3nc4ccc(F)cc4[nH]3)c2)cc1`: the half-inhibitory concentration (IC50) was 1 µM. Moreover, the IC50 under setting [1] amounted to 7.9 µM. This compound came in with an IC50 under setting [2] of 0.5 µM.

In the case of `CC(C)(C)C(Cn1ccnc1)NC(=O)c1ccc2nc(C3CC3)oc2c1` (stereo unspecified), the IC50 was > 50 µM (inactive). This compound registered an IC50 under setting [1] of 16 µM. Also, under setting [2], the IC50 was above 50 µM.

Consider `CS(=O)(=O)c1cccc(-c2cnc(N)c3c(-c4ccc(CO)cc4)csc23)c1`, for which the IC50 is 10 µM. This compound also showed a 50% inhibitory concentration (IC50) under setting [1] above 50 µM. The compound further showed an IC50 under setting [2] of 7.9 µM.

As to `CNC(=O)C1Cc2ccccc2N1C(=O)Cc1ccc(OC)cc1` (stereo unspecified), the IC50 is 7.9 µM. Besides, the 50% inhibitory concentration (IC50) under setting [1] stood at 7.9 µM. The compound also came in with an IC50 under setting [2] of 13 µM.

Regarding `O=C1CCCCCC1(Cc1cnc[nH]1)c1ccc(Cl)cc1Cl` (stereo unspecified), the IC50 was > 50 µM (inactive). Also, under setting [1], the half-maximal inhibitory concentration (IC50) is above 50 µM. Also, the half-inhibitory concentration (IC50) under setting [2] was determined as 6.3 µM.

In the case of `Cc1nc(N2CC(C)OC(C)C2)sc1C(=O)Nc1ccc2c(c1)OCO2` (stereo unspecified), the half-inhibitory concentration (IC50) is 7.9 µM. Moreover, the IC50 under setting [1] is above 50 µM. Also, under setting [2], the IC50 came to 3.2 µM.

With `O=C(NCCc1cccnc1)c1ccc(-c2ccccc2F)o1`, the IC50 is > 50 µM (inactive). The same compound yielded a concentration for half-maximal inhibition (IC50) under setting [1] above 50 µM. The same compound came in with an IC50 under setting [2] above 50 µM.

With `N#Cc1nc(C=Cc2ccccc2)oc1NCc1cccnc1`, the IC50 is 40 µM. This compound came in with an IC50 under setting [1] of 32 µM. Besides, the IC50 under setting [2] was 32 µM.

Take `CN(C)S(=O)(=O)c1ccc(Cl)c(C(=O)Nc2nc(-c3ccccn3)cs2)c1`: the half-inhibitory concentration (IC50) was 10 µM. The compound also registered an IC50 under setting [1] of 6.3 µM. The compound also showed an IC50 under setting [2] of 5 µM.

Consider `NS(=O)(=O)c1ccc(Nc2nccc(-c3cnn4ncccc34)n2)cc1`, for which the concentration for half-maximal inhibition (IC50) is 2 µM. The IC50 under setting [1] came out at 0.25 µM. Under setting [2], this compound displayed a half-inhibitory concentration (IC50) of 1 µM.

As to `COc1cccc(C(=O)[C@H]2C[C@@H]2CN(Cc2cccnc2)Cc2cccnc2)c1`, the IC50 is > 50 µM (inactive). The compound also returned a 50% inhibitory concentration (IC50) under setting [1] of 40 µM. The same compound gave a half-inhibitory concentration (IC50) under setting [2] of 7.9 µM.

Consider `c1cncc(CN(Cc2ccco2)Cc2cn[nH]c2-c2cccs2)c1`, for which the IC50 was > 50 µM (inactive). Under setting [1], this compound displayed a half-maximal inhibitory concentration (IC50) of 20 µM. The compound also came in with an IC50 under setting [2] of 1.3 µM.

`COc1ccc(-c2cnc(NC(=O)c3ccc(F)cc3)n2C)cc1`: the IC50 was 1.3 µM. The compound further yielded an IC50 under setting [1] above 50 µM. Under setting [2], the IC50 is 0.5 µM.

Turning to `O=C(Nc1nccs1)c1ccccc1Cn1cc([N+](=O)[O-])cn1`, the IC50 was > 50 µM (inactive). Under setting [1], the IC50 is above 50 µM. Moreover, the half-maximal inhibitory concentration (IC50) under setting [2] is above 50 µM.

As to `CCN(CC)S(=O)(=O)c1ccc(OC)c(NC(=O)c2ccc([N+](=O)[O-])s2)c1`, the IC50 is > 50 µM (inactive). Under setting [1], this compound returned an IC50 above 50 µM. For the same compound, the IC50 under setting [2] was above 50 µM.

In the case of `CC(C)(C)c1cc(NC2CC2)nc(-c2ccccn2)n1`, the concentration for half-maximal inhibition (IC50) is 2.5 µM. For the same compound, the IC50 under setting [1] amounted to 25 µM. Also, the IC50 under setting [2] stood at 1.6 µM.

As to `Nc1nonc1-c1nc2cncc(C(=O)N3CC[C@H](N)C3)c2n1CC1CC1`, the concentration for half-maximal inhibition (IC50) is 20 µM. Also, under setting [1], the IC50 is 13 µM. This compound had an IC50 under setting [2] of 40 µM.

As for `Cc1cc(C)n(-c2nc(NC(C)(C)C)nc(N3CCOCC3)n2)n1`, the concentration for half-maximal inhibition (IC50) is 7.9 µM. Further, under setting [1], the IC50 was above 50 µM. Also, the 50% inhibitory concentration (IC50) under setting [2] came to 4 µM.

Consider `CCC(c1ccc(F)cc1)n1cncc1-c1cnn(C)c1` (stereo unspecified), for which the IC50 was > 50 µM (inactive). Under setting [1], this compound registered an IC50 above 50 µM. Besides, the concentration for half-maximal inhibition (IC50) under setting [2] was above 50 µM.

Take `O=[N+]([O-])c1ccc(C2=CC(c3ccccc3)=NCCN2)cc1`: the IC50 is 20 µM. Moreover, the IC50 under setting [1] was found to be 40 µM. The compound also displayed an IC50 under setting [2] of 7.9 µM.

As to `NC(=O)c1ccc(-c2cccc(OCCN3CCN(C4CCCCC4)CC3)c2)cc1`, the IC50 was 50 µM. Besides, the IC50 under setting [1] came to 32 µM. Under setting [2], this compound came in with an IC50 of 10 µM.

For `CCOc1ccc(Nc2ccc(S(=O)(=O)N3CCN(C)CC3)cc2[N+](=O)[O-])cc1OCC`, the half-inhibitory concentration (IC50) is 7.9 µM. This compound also displayed an IC50 under setting [1] of 13 µM. Under setting [2], this compound showed a 50% inhibitory concentration (IC50) of 5 µM.

Turning to `Cc1cc(NC(=O)c2ccc([N+](=O)[O-])s2)ccc1Br`, the IC50 was 2.5 µM. This compound also returned a half-inhibitory concentration (IC50) under setting [1] of 16 µM. Besides, the IC50 under setting [2] was determined as 1.6 µM.

In the case of `CN(C)Cc1cccc(Nc2nccc(-c3ccc(NCCN)c(C#N)c3)n2)c1`, the IC50 was 1.3 µM. Also, the 50% inhibitory concentration (IC50) under setting [1] was determined as 6.3 µM. Under setting [2], this compound registered a half-maximal inhibitory concentration (IC50) of 0.5 µM.

In the case of `O=C(c1ccc(OCCCc2cnc[nH]2)cc1)C1CC1`, the IC50 was > 50 µM (inactive). The half-inhibitory concentration (IC50) under setting [1] was above 50 µM. Also, the IC50 under setting [2] came to 7.9 µM.

In the case of `O=[N+]([O-])c1ccc(-c2nnn(-c3cccnc3)n2)o1`, the IC50 is > 50 µM (inactive). Under setting [1], this compound gave an IC50 of 13 µM. The compound also gave a concentration for half-maximal inhibition (IC50) under setting [2] of 50 µM.

In the case of `O=C(Cc1ccc2c(c1)CCC2)Nc1n[nH]c(-c2ccccn2)n1`, the IC50 is 6.3 µM. Under setting [1], the IC50 was above 50 µM. The same compound gave an IC50 under setting [2] of 6.3 µM.
